Measured values as given in the supplement of paper PMC13380429.

Columns and labels:
Settings in all cases: 72 h
Caco-2 [1] = assay: drug sensitivity score (DSS) for viability; higher = more toxic; extreme values may be limits of the assay
HepG2 [2] = assay: as above
Calu-3 [3] = assay: as above
U2OS [4] = assay: as above
Vero E6 [5] = assay: as above
Caco-2 [6] = assay: relative viability EC50 (midpoint between 100% and the lowest measured viability); higher = less toxic
HepG2 [7] = assay: as above
Calu-3 [8] = assay: as above
U2OS [9] = assay: as above
Vero E6 [10] = assay: as above
Caco-2 [11] = assay: cell viability relative to DMSO; higher = less toxic
HepG2 [12] = assay: as above
Calu-3 [13] = assay: as above
U2OS [14] = assay: as above
Vero E6 [15] = assay: as above

SMILES | drug sensitivity score (Caco-2 [1]) | drug sensitivity score (HepG2 [2]) | drug sensitivity score (Calu-3 [3]) | drug sensitivity score (U2OS [4]) | drug sensitivity score (Vero E6 [5]) | relative viability EC50 (Caco-2 [6]) [µM] | relative viability EC50 (HepG2 [7]) [µM] | relative viability EC50 (Calu-3 [8]) [µM] | relative viability EC50 (U2OS [9]) [µM] | relative viability EC50 (Vero E6 [10]) [µM] | cell viability (Caco-2 [11]; 1 nM) [%] | cell viability (Caco-2 [11]; 10 nM) [%] | cell viability (Caco-2 [11]; 100 nM) [%] | cell viability (Caco-2 [11]; 1000 nM) [%] | cell viability (Caco-2 [11]; 10000 nM) [%] | cell viability (HepG2 [12]; 1 nM) [%] | cell viability (HepG2 [12]; 10 nM) [%] | cell viability (HepG2 [12]; 100 nM) [%] | cell viability (HepG2 [12]; 1000 nM) [%] | cell viability (HepG2 [12]; 10000 nM) [%] | cell viability (Calu-3 [13]; 1 nM) [%] | cell viability (Calu-3 [13]; 10 nM) [%] | cell viability (Calu-3 [13]; 100 nM) [%] | cell viability (Calu-3 [13]; 1000 nM) [%] | cell viability (Calu-3 [13]; 10000 nM) [%] | cell viability (U2OS [14]; 1 nM) [%] | cell viability (U2OS [14]; 10 nM) [%] | cell viability (U2OS [14]; 100 nM) [%] | cell viability (U2OS [14]; 1000 nM) [%] | cell viability (U2OS [14]; 10000 nM) [%] | cell viability (Vero E6 [15]; 1 nM) [%] | cell viability (Vero E6 [15]; 10 nM) [%] | cell viability (Vero E6 [15]; 100 nM) [%] | cell viability (Vero E6 [15]; 1000 nM) [%] | cell viability (Vero E6 [15]; 10000 nM) [%]
C[C@@H](Nc1cc(F)cc(F)c1)c1cc(C(=O)N(C)C)cc2c(=O)cc(N3CCOCC3)oc12 [AZD8186] | 8.8 | 1.5 | 6.4 | 1.7 | 3.8 | 0.2 | > 10 | 0.6 | > 10 | > 10 | 90.7 | 78.2 | 84.1 | 75.3 | 48 | 101 | 92.2 | 96.5 | 92 | 75.7 | 88.4 | 100 | 82.8 | 76.4 | 47.8 | 96.2 | 97.3 | 96.8 | 87.9 | 76.9 | 96.8 | 95.6 | 89.2 | 78.9 | 75
CCC1NC(=O)c2cc(S(N)(=O)=O)c(Cl)cc2N1 (stereo not given) [quinethazone] | 0.7 | 0 | 0 | 0 | 0 | > 10 | > 10 | > 10 | > 10 | > 10 | 94.3 | 108 | 96.4 | 97.4 | 82.9 | 110 | 103 | 103 | 92.6 | 93.1 | 101 | 94.8 | 97.5 | 91.2 | 95.1 | 91.9 | 100 | 93.3 | 101 | 105 | 106 | 86.7 | 103 | 100 | 98.6
CCC1(CC)C(=O)C=CNC1=O [pyrithyldione] | 0 | 0 | 0 | 0 | 0 | > 10 | > 10 | > 10 | > 10 | > 10 | 100 | 93.1 | 93.4 | 92.3 | 102 | 91 | 92 | 94.9 | 104 | 95.1 | 93.1 | 94.1 | 99.5 | 99.9 | 96.7 | 98.2 | 95 | 97.8 | 95.1 | 96.6 | 93.5 | 107 | 97.5 | 102 | 93.6
N=C(N)c1ccc(N2CCN(C3CCN(CC(=O)O)CC3)CC2)cc1 | 0 | 0 | 0 | 0 | 0 | > 10 | > 10 | > 10 | > 10 | > 10 | 83 | 97.2 | 89.2 | 92.5 | 104 | 111 | 96.8 | 101 | 107 | 102 | 91.4 | 96.4 | 90 | 92 | 100 | 97.6 | 103 | 95.6 | 96.9 | 102 | 97.9 | 98.6 | 99.2 | 93.5 | 96.9
Nc1cc(C(F)(F)F)c(-c2cc(N3CCOCC3)nc(N3CCOCC3)n2)cn1 [buparlisib] | 10.3 | 9.1 | 12.7 | 7.9 | 8.4 | 0.761 | 1.3 | 0.434 | 1.57 | 1.22 | 95.3 | 99 | 91.5 | 53.5 | 18 | 100 | 96.6 | 95.7 | 67.2 | 10.5 | 116 | 97.3 | 87.7 | 40.5 | 18 | 103 | 102 | 104 | 79.4 | 15.6 | 101 | 97 | 92.9 | 66.2 | 17.8
Nc1cc(-c2ccncc2)c[nH]c1=O [amrinone] | 0 | 0 | 0 | 0 | 0 | > 10 | > 10 | > 10 | > 10 | > 10 | 96.2 | 97.1 | 92.4 | 91.8 | 95.9 | 96.2 | 100 | 104 | 97.8 | 97.3 | 94.9 | 95.7 | 93.7 | 93.9 | 109 | 104 | 98.3 | 105 | 98.9 | 108 | 95.5 | 96.2 | 86.6 | 100 | 106
COC(=O)/C=C/c1cccc(N(Cc2ccc(-c3ccc(N(C)C)cc3)cc2)C(=O)C2CCCCC2)c1 [fexaramine] | 1.3 | 0.3 | 0 | 0.1 | 0.1 | > 10 | > 10 | > 10 | > 10 | > 10 | 104 | 99.9 | 104 | 92 | 81.1 | 105 | 104 | 97.4 | 101 | 83.5 | 110 | 95.4 | 104 | 96.5 | 92.3 | 103 | 97.5 | 99.9 | 97 | 88.5 | 107 | 103 | 99.4 | 98.3 | 88.8
CC(=O)O[C@@]12CO[C@@H]1C[C@H](O)[C@@]1(C)C(=O)[C@H](O)C3=C(C)[C@@H](O)C[C@@](O)([C@@H](OC(=O)c4ccccc4)[C@H]21)C3(C)C [10-deacetylbaccatin] | 0 | 0 | 0 | 0 | 0 | > 10 | > 10 | > 10 | > 10 | > 10 | 102 | 110 | 92.6 | 99 | 102 | 93.9 | 105 | 97.3 | 108 | 108 | 105 | 95.6 | 94.9 | 97.4 | 108 | 98.4 | 99.3 | 104 | 102 | 107 | 97.6 | 96.1 | 95.6 | 95.1 | 106
CCOC(=O)c1ccccc1OC(N)=O [ethyl-2-(carbamoyloxy)benzoate] | 0 | 0 | 0 | 0 | 0 | > 10 | > 10 | > 10 | > 10 | > 10 | 104 | 91.5 | 97.1 | 106 | 96.9 | 106 | 87.2 | 94.2 | 83.5 | 103 | 93.2 | 92.5 | 98 | 122 | 103 | 98.6 | 103 | 100 | 102 | 98.6 | 109 | 91.4 | 102 | 106 | 103
C[C@](N)(Cc1ccc(O)c(O)c1)C(=O)O [methyldopa] | 0 | 0 | 0 | 0 | 0 | > 10 | > 10 | > 10 | > 10 | > 10 | 97.5 | 103 | 89.8 | 106 | 99.9 | 94.1 | 97.4 | 104 | 92.3 | 108 | 96.9 | 102 | 101 | 98.9 | 93.6 | 101 | 103 | 96.7 | 97.8 | 93.1 | 99.2 | 102 | 94.5 | 97.9 | 106
CCOc1cc(/C=C2/C(=O)N(c3ccccc3)N=C2C)cc(Cl)c1OCC(=O)OC | 0 | 0 | 0 | 0 | 0 | > 10 | > 10 | > 10 | > 10 | > 10 | 102 | 108 | 92.4 | 92.9 | 97.4 | 96.5 | 101 | 96.1 | 98.3 | 91.6 | 92.9 | 95.9 | 105 | 94.8 | 108 | 102 | 100 | 98.2 | 96.2 | 99.4 | 104 | 106 | 103 | 102 | 97.7
N#CC(c1ccccc1)(c1ccccc1)c1ccccc1Cl [TRAM-39] | 0 | 0 | 0 | 0 | 0 | > 10 | > 10 | > 10 | > 10 | > 10 | 94.3 | 93.2 | 90.8 | 96.9 | 92.6 | 105 | 102 | 93.7 | 92.7 | 103 | 93.8 | 93 | 107 | 106 | 92.9 | 101 | 96.5 | 95.7 | 97.3 | 94.3 | 103 | 97.8 | 97.8 | 95.2 | 98.5
CC(C)c1cccc2c(-c3ccccc3)cc(-c3ccc(-c4ccc(C(=O)O)cc4)[nH]3)nc12 | 1.5 | 0 | 0 | 0 | 1.4 | > 10 | > 10 | > 10 | > 10 | > 10 | 89.3 | 102 | 96.5 | 91.7 | 76.1 | 94.8 | 87.1 | 100 | 98.8 | 87.6 | 103 | 96.2 | 99.2 | 117 | 103 | 97.5 | 101 | 98.9 | 103 | 96.9 | 95.6 | 94 | 86.7 | 83.9 | 91.3
